From patent US11365201B2, “Chlorotonil derivatives” (HELMHOLTZ-ZENTRUM FÜR INFEKTIONSFORSCHUNG GMBH, priority 2017, dated 2022)
In brackets after ≈: the same amount, converted by molar mass. Like-named read-outs stand apart in the source and are kept apart here.

Columns and labels:
E. coli TolC (+PMBN) = test: Antimicrobial assay, MIC by microbroth dilution with PMBN; assay type: cell-based; details: 16 h, 3 μg/mL polymyxin B nonapeptide (PMBN) added
Experimental: (§1) Bacterial strains used in susceptibility assays (minimum inhibitory concentrations, MIC) were either part of our internal strain collection or were purchased form the German Collection of Microorganisms and Cell Cultures (DSMZ). All compounds were prepared as DMSO stocks and MIC values were determined in standard microbroth dilution assays. Overnight cultures of bacteria were diluted in cation-adjusted Muller-Hinton broth (BBL™, BD) and were adjusted to approximately 10^5 cfu/mL. For the E. coli culture, 3 μg/mL of polymyxin B nonapeptide (PMBN) was added to increase permeability of the outer membrane as chlorotonils were previously shown to not penetrate into Gram-negative cells. Bacteria were grown in the presence of the derivatives in serial dilution for 16 h at their optimal growth temperature. MIC values were determined according to CLSI guidelines (antibiotic concentration at which no visible bacterial growth is observed).

[1] = system: P. falciparum Dd2 (resistant strain); test: Antiplasmodial in vitro drug sensitivity assay (HRP2-ELISA); assay type: cell-based; details: Plasmodium falciparum, P. falciparum Dd2 (resistant strain), read-out: IC50 against P. falciparum Dd2
Experimental: (§2) Two laboratory strains of P. falciparum, the chloroquine sensitive 3D7 and the multi-resistant Dd2 were kept in continuous culture as previously described (Trager and Jensen 1976). In brief, parasites were kept in complete culture medium (RPMI 1640, 25 mM HEPES, 2 mM L-glutamine, 50 μg/ml gentamicin and 0.5% w/v AlbuMAX) at 37° C., 5% CO2 and 5% oxygen at 5% hematocrit with daily change of medium. Synchronization was performed with sorbitol twice a week (Lambros and Vanderberg 1979).
(§3) In Vitro Drug Sensitivity Assay
(§4) All compounds were dissolved in DMSO at stock dilutions between 25 and 100 mM; the reference drug chloroquine diphosphate (MW: 515.86) was diluted in distilled water and DMSO, respectively. […] Antiplasmodial activity of the different compounds was tested in a drug sensitivity assay against the two laboratory strains using the histidine-rich protein 2 (HRP2) assay as described previously (Noedl 2005). In brief: 96 well plates were pre-coated with the different compounds in a threefold dilution before ring stage parasites were added in complete culture medium at a hematocrit of 1.5% and a parasitemia of 0.05% in a total volume of 225 μl per well. After three days of incubation plates were frozen until analyzed by HRP2-ELISA. All compounds were evaluated in duplicate in at least two independent experiments.

[2] = system: P. falciparum 3D7 (sensitive strain); test: as above; assay type: cell-based; details: Plasmodium falciparum, P. falciparum 3D7 (sensitive strain), read-out: IC50 against P. falciparum 3D7
Experimental: as §2, §3, §4

[3] = system: L-929 (murine fibroblasts); test: Cytotoxicity assay (MTT, 5 d); assay type: cell-based; details: Mus musculus, L929, 120 h
Experimental: Cytotoxicity Assay The murine fibroblast cell line L-929 was obtained from the German Collection of Microorganisms and Cell Cultures (DSMZ) and maintained under conditions recommended by the depositor. Cells were seeded at 6×10^3 cells per well of sterile 96-well plates in 180 μL complete medium and treated with the compounds in serial dilution after 2 h of equilibration. After 5 d, viability was assessed by the MTT method. After 1.5 h incubation with 0.5 mg/mL MTT reagent, cells were washed with PBS and 100 μL of 2-propanol/10 N HCl (250:1) was added. The absorbance at 570 nm was determined on a microplate reader and cell viability was expressed as percentage relative to the respective solvent control. Half-inhibitory concentrations (IC50) were determined by sigmoidal curve fitting.

C. glutamicum DSM-20300 = test: Antimicrobial assay, MIC by microbroth dilution; assay type: cell-based; details: Corynebacterium glutamicum, DSM20300; 16 h, cation-adjusted Muller-Hinton broth
Experimental: as §1, with “For the E. coli culture, 3 μg/mL of polymyxin B nonapeptide (PMBN) was added to increase permeability of the outer membrane as chlorotonils were previously shown to not penetrate into Gram-negative cells.” left out

S. aureus Newman = test: Antimicrobial assay, MIC by microbroth dilution; assay type: cell-based; details: Staphylococcus aureus, NEWMAN; 16 h, cation-adjusted Muller-Hinton broth
Experimental: as §1, with “For the E. coli culture, 3 μg/mL of polymyxin B nonapeptide (PMBN) was added to increase permeability of the outer membrane as chlorotonils were previously shown to not penetrate into Gram-negative cells.” left out

B. subtilis DSM-10 = test: Antimicrobial assay, MIC by microbroth dilution; assay type: cell-based; details: Bacillus subtilis, DSM10; 16 h, cation-adjusted Muller-Hinton broth
Experimental: as §1, with “For the E. coli culture, 3 μg/mL of polymyxin B nonapeptide (PMBN) was added to increase permeability of the outer membrane as chlorotonils were previously shown to not penetrate into Gram-negative cells.” left out

[4] = Determination of water solubility, Method 2 (HPLC-MS standard curve, saturated solution in water); assay type: physicochemical; details: for solubility: thermodynamic from solid, saturated solution in water, HPLC-MS standard curve
Experimental: (§5) Determination of Water Solubility
A standard curve with 10 calibration points of the compound of interest is plotted using HPLC-MS and serial dilution. The dilutions and stock solutions were prepared in THF as a solvent. Following the measurements, a saturated solution in water of the compound in study was also measured. Upon plotting the standard curve using the peak areas of the MS peaks, the water samples were plotted along the curve and the solubility was then calculated.

[5] = Determination of water solubility, Method 1 (suspension in tap water, weighing); assay type: physicochemical; details: thermodynamic from solid, room temperature, 18 h stirring, triplicates
Experimental: as §5
10 mg of compound was suspended in 1 L of tap water and the solution was stirred at room temperature for 18 h. Upon completion, solution was sonicated for another hour, centrifuged and the supernatant was separated from the precipitate. Both aliquots were lyophilized, and weighed. This procedure was performed in triplicates.

[6] = system: zebrafish larvae of the TLF wild type line; test: Zebrafish embryo toxicity, maximum tolerated concentration (MTC), TLF line; assay type: in vivo; details: at five dpf, incubation started at one dpf
Experimental: (§6) Zebrafish Embryo Toxicity
(§7) The maximum tolerated concentration (MTC) was determined on zebrafish larvae of the AB wildtype line and the TLF wild type line. Larvae were placed into a 96-well plate (one larva per well) and incubated in a solution at different concentrations (100, 50, 25, 10, 1 μM) of ChA, ChA-Epo2, ChB or ChB-Epo at two days post fertilization (dpf) for AB and in a solution at different concentrations of ChA (100, 50 μM) ChA-Epo2 (25, 10, 1 μM), ChB (100, 50 μM) or ChB-Epo (100, 50, 25 μM) at one dpf for TLF. Five zebrafish larvae were used per condition. The incubated embryos were kept in compound solutions at 28° C. until five dpf and monitored daily by microscopy. The final MTC result was recorded at five dpf. Compound solutions were prepared in the larvae medium Danieau's. Additionally a solution of 0.5% DMSO in Danieau's was used as vehicle control and Danieau's alone as a negative control.

Gram-positive bacteria = test: Antimicrobial assay, MIC against a range of Gram-positive bacteria (Table 5); assay type: cell-based; details: read-out: MIC
Experimental: as §1, with “For the E. coli culture, 3 μg/mL of polymyxin B nonapeptide (PMBN) was added to increase permeability of the outer membrane as chlorotonils were previously shown to not penetrate into Gram-negative cells.” left out

[7] = system: zebrafish larvae of the AB wildtype line; test: Zebrafish embryo toxicity, maximum tolerated concentration (MTC), AB line; assay type: in vivo
Experimental: as §6, §7

C[C@@H]1C(=O)O[C@@H](C)/C=C/C=C\[C@@H](C)[C@@H]2C=C[C@]3(C)C[C@]4(C)O[C@@H]4[C@@H](C)[C@H]3[C@@H]2C(=O)C(Cl)(Cl)C1=O [ChA-Epo1]
MIC E. coli TolC (+PMBN) (E. coli TolC (+PMBN)): >3.2 µg/mL
IC50 [1]: 0.229 µM
IC50 [2]: 0.0965 µM
IC50 [3]: 10300 nM
MIC (C. glutamicum DSM-20300): > 3.2 µg/mL
MIC (S. aureus Newman): 3.2 µg/mL (≈ 6.28 µM)
MIC (B. subtilis DSM-10): 3.2 µg/mL (≈ 6.28 µM)

C[C@@H]1C(=O)O[C@@H](C)/C=C/C=C\[C@@H](C)[C@@H]2C=C[C@@H]3C[C@@](C)(O)[C@H](Br)[C@@H](C)[C@H]3[C@@H]2C(=O)C(Cl)(Cl)C1=O [ChA-Epo2-Br]
MIC E. coli TolC (+PMBN) (E. coli TolC (+PMBN)): 0.2 µg/mL
IC50 [1]: 0.0644 µM
IC50 [2]: 0.0251 µM
IC50 [3]: 1100 nM
MIC (C. glutamicum DSM-20300): 0.1 µg/mL (≈ 0.174 µM)
MIC (S. aureus Newman): 0.05 µg/mL (≈ 0.0868 µM)
MIC (B. subtilis DSM-10): 0.05 µg/mL (≈ 0.0868 µM)

C[C@@H]1C(=O)O[C@@H](C)/C=C/C=C\[C@@H](C)[C@@H]2C=C[C@@H]3C[C@@](C)(O)[C@H](Cl)[C@@H](C)[C@H]3[C@@H]2C(=O)C(Cl)(Cl)C1=O [ChA-Epo2-Cl]
MIC E. coli TolC (+PMBN) (E. coli TolC (+PMBN)): 0.8 µg/mL
IC50 [1]: 0.0459 µM
IC50 [2]: 0.0387 µM
solubility [4]: 320 µg/mL (≈ 602 µM)
solubility at 18 h [5]: 280 µg/mL (≈ 526 µM)
IC50 [3]: 4200 nM
MIC (C. glutamicum DSM-20300): 0.4 µg/mL (≈ 0.752 µM)
MIC (S. aureus Newman): 0.05 µg/mL (≈ 0.094 µM)
MIC (B. subtilis DSM-10): 0.1 µg/mL (≈ 0.188 µM)

CCCCO[C@@H]1[C@@H](C)[C@H]2[C@@H]3C(=O)C(Cl)(Cl)C(=O)[C@H](C)C(=O)O[C@@H](C)/C=C/C=C\[C@@H](C)[C@@H]3C=C[C@@H]2C[C@@]1(C)O [ChA-Epo2-OBu]
MIC E. coli TolC (+PMBN) (E. coli TolC (+PMBN)): >3.2 µg/mL
IC50 ([1]; μM): > 11 µM
IC50 ([2]; μM): > 11 µM
IC50 [3]: 49400 nM
MIC (C. glutamicum DSM-20300): > 3.2 µg/mL
MIC (S. aureus Newman): 1.6 µg/mL (≈ 2.81 µM)
MIC (B. subtilis DSM-10): 0.8 µg/mL (≈ 1.4 µM)

C[C@@H]1C(=O)O[C@@H](C)/C=C/C=C\[C@@H](C)[C@@H]2C=C[C@@H]3C[C@@](C)(O)[C@H](O[N+](=O)[O-])[C@@H](C)[C@H]3[C@@H]2C(=O)C(Cl)(Cl)C1=O [ChA-Epo2-ONO2]
MIC E. coli TolC (+PMBN) (E. coli TolC (+PMBN)): 0.1 µg/mL
IC50 [1]: 0.0022 µM
IC50 [2]: 0.00092 µM
solubility [4]: 380 µg/mL (≈ 680 µM)
solubility at 18 h [5]: 310 µg/mL (≈ 555 µM)
MIC (C. glutamicum DSM-20300): 0.1 µg/mL (≈ 0.179 µM)
MIC (S. aureus Newman): 0.025 µg/mL (≈ 0.0448 µM)
MIC (B. subtilis DSM-10): 0.025 µg/mL (≈ 0.0448 µM)

CC(C)CCO[C@@H]1[C@@H](C)[C@H]2[C@@H]3C(=O)C(Cl)(Cl)C(=O)[C@H](C)C(=O)O[C@@H](C)/C=C/C=C\[C@@H](C)[C@@H]3C=C[C@@H]2C[C@@]1(C)O [ChA-Epo2-Oisoamyl]
MIC E. coli TolC (+PMBN) (E. coli TolC (+PMBN)): 0.8 µg/mL
IC50 ([1]; μM): > 11 µM
IC50 ([2]; μM): > 11 µM
IC50 [3]: 44700 nM
MIC (C. glutamicum DSM-20300): 3.2 µg/mL (≈ 5.48 µM)
MIC (S. aureus Newman): 1.6 µg/mL (≈ 2.74 µM)
MIC (B. subtilis DSM-10): 0.8 µg/mL (≈ 1.37 µM)

C[C@@H]1C(=O)O[C@@H](C)/C=C/C=C\[C@@H](C)[C@@H]2C=C[C@@H]3C[C@@]4(C)O[C@H]4[C@@H](C)C3C2/C(O)=C(\Cl)C1=O (stereo partly drawn) [ChB-Epo]
Observations noted on fish larvae ([6]; 50 μM): slight tail malformation
Observations noted on fish larvae ([6]; 100 μM): tail malformation
MTC (maximum tolerated concentration) [6]: 25 µM
IC50 [1]: 0.182 µM
IC50 [2]: 0.158 µM
MIC (Gram-positive bacteria; Enterococcus faecalis, E. faecalis 20478): 3.2 µg/mL (≈ 6.94 µM)
MIC (Gram-positive bacteria; Enterococcus faecalis, E. faecalis 29212): > 3.2 µg/mL
MIC (Gram-positive bacteria; Enterococcus faecium, E. faecium 20477): > 3.2 µg/mL
MIC (Gram-positive bacteria; Enterococcus faecium, VRE, E. faecium 17050 (VRE)): 3.2 µg/mL (≈ 6.94 µM)
MIC (Gram-positive bacteria; Micrococcus luteus, M. luteus): 0.1 µg/mL (≈ 0.217 µM)
MIC (Gram-positive bacteria; Mycolicibacterium smegmatis, M. smegmatis): > 3.2 µg/mL
MIC (Gram-positive bacteria; Priestia megaterium, B. megaterium): 0.05 µg/mL (≈ 0.108 µM)
MIC (Gram-positive bacteria; Staphylococcus epidermidis, S. epidermidis 28765): 0.8 µg/mL (≈ 1.74 µM)
MIC (Gram-positive bacteria; Streptococcus pneumoniae, PRSP, S. pneumoniae 11865 (PRSP)): > 32 µg/mL
MIC (Gram-positive bacteria; Streptococcus pneumoniae, S. pneumoniae 20566): 0.8 µg/mL (≈ 1.74 µM)
Observations noted on fish larvae ([7]; 50 μM, AB line, at five dpf, incubation started at two dpf): died
Observations noted on fish larvae ([7]; 100 μM, AB line, at five dpf, incubation started at two dpf): died
MTC (maximum tolerated concentration) ([7]; AB line, at five dpf, incubation started at two dpf): 25 µM
Toxicity in zebrafish (MTC), comparison of the epoxide derivatives ([7]; zebrafish, line not named in the sentence (Tables 6 and 7)): less toxic than the chlorotonil A derivative
MIC (S. aureus Newman): 0.05 µg/mL (≈ 0.108 µM)

CC1=C[C@@H](C)[C@H]2[C@@H]3C(=O)C(Cl)(Cl)C(=O)[C@H](C)C(=O)O[C@@H](C)/C=C/C=C\[C@@H](C)[C@@H]3C=C[C@@H]2C1 [Chlorotonil A (ChA), Chlorotonil A, reference compound]
water solubility ([4]; summary of Table 1, method not given): less than 2 μg/mL
